Data set [1] deals with SARS virus (strain Frankfurt-1). The data set can be described thus: microbe, parasite or virus in culture. Format: cell-based, human corona (SARS) virus. The settings on record: Severe acute respiratory syndrome coronavirus, Vero, read-out: EC50 SARS virus.
A short description of data set [2]: in vitro. The settings on record: monkey (simian).
Data set [3] is described as follows: in vitro. To be noted: cat.
The subject of data set [4] is FCV. The data set can be described thus: Feline corona virus assay in Feline Crandel kidney cells (MTS). It counts as cell-based. The settings on record: Felis catus, read-out: EC50 FCV. How it is done: Feline Crandel kidney cells were seeded in 96-well microtiter plates at 24,000 cells/well. Then, 24 hrs later, an appropriate inoculum of FCV is added together with 5-fold dilutions of the test compounds. After 4 days, a MTS/PMS solution was added to each well. Following a 90 min incubation period at 37° C., the optical density of the wells was read at 498 nm in a microplate reader.

For data set [5], the system named is BVDV-1 (strain PE515). The data set can be described thus: Anti-BVDV assay in MDBK cells (MTS). It counts as cell-based, bovine viral diarrhea virus. How it is done:
Cells and viruses: Madin-Darby Bovine Kidney (MDBK) cells were maintained in Dulbecco's modified Eagle medium (DMEM) supplemented with BVDV-free 5% fetal calf serum (DMBM-FCS) at 37° C. in a humidified, 5% CO2 atmosphere. BVDV-1 (strain PE515) was used to assess the antiviral activity in MDBK cells. Vero cells (ATCC CCL81) were maintained in MEM medium supplemented with 10% inactivated calf serum, 1% L-glutamine and 0.3% bicarbonate.
Anti-BVDV assay: Ninety-six-well cell culture plates were seeded with MDBK cells in DMEM-FCS so that cells reached 24 hr later confluency. Then medium was removed and serial 5-fold dilutions of the test compounds were added in a total volume of 100 ul, after which the virus inoculum (100 ul) was added to each well. […] Uninfected cells and cells receiving virus without compound were included in each assay plate. After 5 days, medium was removed and 90 μt of DMEM-FCS and 10 ul of MTS/PMS solution (Promega) was added to each well. Following a 2 hr incubation period at 37° C. the optical density of the wells was read at 498 nm in a microplate reader.

In data set [6] the test system is VZV (wild-type strains). The data set can be described thus: Anti-VZV assay (wild-type strains): virus-induced cytopathicity in HEL cell cultures. It counts as cell-based, varicella-zoster virus. To be noted: HEL cell cultures. Background: Cytopathic effects are the visible damage that an infection or toxin causes in cultured cells.
For data set [7], the system named is HEL cells.
Data set [8] deals with MDBK cells.
Data set [9] has as its system HEL cells. To be noted: read-out: CC50 (HEL), HEL cells.
Data set [10] is described as follows: in vitro. The settings on record: human.
Data set [11] deals with HIV. The data set can be described thus: Time of addition experiment (HIV). It counts as cell-based.
Data set [12] deals with CMV. The data set can be described thus: Anti-CMV assay: virus-induced cytopathicity in HEL cell cultures. To be noted: read-out: EC50 CMV AD-169; CMV strain AD-169, HEL cell cultures.
In data set [13] the test system is human lymphocyte CEM. The data set can be described thus: Cytostatic activity assay, CEM cells. It counts as cell-based.
The test system of data set [14] is HIV-2(ROD). The data set can be described thus: Inhibition of HIV-2 (ROD)-induced cytopathicity (giant cell formation) in CEM cells. It counts as cell-based. To be noted: read-out: EC50 HIV-2 (concentration required to inhibit HIV-induced giant cell formation by 50%); HIV-2, CEM cell cultures. How it is done: (§1) A variety of glycopeptide antibiotic derivatives of vancomycin, eremomycin and teicoplanin including their aglycon derivatives were evaluated for their inhibitory activity against HIV-1 (IIIB) and HIV-2(ROD) in CEM cell cultures.

The test system of data set [15] is HIV. The data set can be described thus: Anti-HIV activity in cell culture, HIV type not distinguished. The settings on record: read-out: EC50 against HIV. It counts as cell-based. How it is done: as §1
In data set [16] the test system is HIV-1 (IIIB). The data set can be described thus: Inhibition of HIV-1 (IIIB)-induced cytopathicity (giant cell formation) in CEM cells. It counts as cell-based. The settings on record: read-out: EC50 HIV-1 (concentration required to inhibit HIV-induced giant cell formation by 50%); HIV-1, CEM cell cultures. How it is done:
as §1

Data set [17] has as its system human lymphocyte Molt4/clone 8. The data set can be described thus: Cytostatic activity assay, Molt4/clone 8 cells. Format: cell-based. The settings on record: read-out: IC50 Molt4/C8 (compound concentration required to inhibit tumor cell proliferation by 50%).
Data set [18] concerns murine leukemia L1210. The data set can be described thus: Cytostatic activity assay, L1210 cells. To be noted: read-out: IC50 L1210 (compound concentration required to inhibit tumor cell proliferation by 50%). Format: cell-based.

Where two headings read alike, the source gives them in different places.

For `COC(=O)C1NC(=O)C2NC(=O)C(NC(=O)C(NC(=O)OC(C)(C)C)c3cc(Oc4ccc(CC(NC(=O)OCc5ccccc5)C(=O)O)cc4Cl)c(O)c(c3)Oc3ccc(cc3Cl)C2O)c2ccc(O)c(c2)-c2c(O)cc(O)cc21` (stereo not shown) [Compound 170], the results for the EC50 in data set [1] and in data set [4] were 32 µM and 23 µM, respectively. Besides, the CC50 in [2] and in data set [3] was above 100 µM each time.
For `CCCCCCCCCCN1CCN(C(=O)C2NC(=O)C3NC(=O)C(NC(=O)C4NC(=O)C5NC(=O)C(Cc6ccc(c(Cl)c6)Oc6cc4cc(c6O)Oc4ccc(cc4Cl)C3O)NC(=O)C(N)c3ccc(O)c(c3)Oc3cc(O)cc5c3)c3ccc(O)c(c3)-c3c(O)cc(O)cc32)CC1` (stereo not shown) [Compound 126], the “activity against BVDV” value in [5] is “activity”. For the same compound, the EC50 in data set [5] (MDBK cells) was 12 µM; in [6] (VZV strain OKA, read-out: EC50 VZV (OKA)), 1 µM; in data set [6] (VZV strain YS, read-out: EC50 VZV (YS)), 0.3 µM. The “MTC (HEL)” value in data set [7] (anti-VZV table) is above 5 to 50 µM. In data set [8], the “MTC (MDBK)” value turned out to be 60. In addition, in [9] (anti-VZV table), the CC50 was above 50 µM.
As to `COC(=O)C1NC(=O)C2NC(=O)C(NC(=O)C(N)c3cc(Oc4ccc(CC(NC(=O)OCc5ccccc5)C(=O)O)cc4Cl)c(O)c(c3)Oc3ccc(cc3Cl)C2O)c2ccc(O)c(c2)-c2c(O)cc(O)cc21` (stereo not shown) [Compound 169], the EC50 in data set [6] (Human alphaherpesvirus 3, VZV strain OKA, read-out: EC50 VZV (OKA)) amounted to 34 µM. For the same compound, the “MTC (HEL)” value in data set [7] (anti-VZV table) was above 200 µM. The compound further yielded a CC50 in data set [10] of 50 µM.
In the case of `Cc1cn([C@H]2C[C@H](N=[N+]=[N-])[C@@H](CO)O2)c(=O)[nH]c1=O` [AZT, zidovudine], in data set [11], the “time post infection up to which addition can be delayed without loss of antiviral activity” value is reported as “at least 3 h”.
Take `N[C@H]1C(=O)N[C@@H]2Cc3ccc(c(Cl)c3)Oc3cc4cc(c3O)Oc3ccc(cc3Cl)[C@@H](O)[C@@H]3NC(=O)[C@H](NC(=O)[C@@H]4NC(=O)[C@@H](NC2=O)c2cc(O)cc(c2)Oc2cc1ccc2O)c1ccc(O)c(c1)-c1c(O)cc(O)cc1[C@@H](C(=O)O)NC3=O` [Compound 112, Teicoplanin aglycon]: the EC50 is 32 µM in [12], 20 µM in data set [14], 17 to 20 µM in data set [15] and 17 ± 3.5 µM in [16]. Moreover, the “MTC (HEL)” value in data set [7] (anti-CMV table) is given as “≧20-200 μM”. In addition, the IC50 in data set [13] (read-out: IC50 (toxicity in cell culture)), in data set [13] (read-out: IC50 CEM (compound concentration required to inhibit tumor cell proliferation by 50%)), in data set [17] and in data set [18] was above 500 µM throughout. Also, the CC50 in data set [9] (anti-CMV table) is above 200 µM.

Source of the values: patent US20050250677A1, “Glycopeptide antibiotic derivatives” (priority 2002, published 2005).
